Assay results taken from US20230149282A1, “High-Potency Vitamin C Chemical Peeling Solutions” (Baek Clinical Inc., priority 2020, published 2023).
Each block holds one compound with its values, some of them ahead of it.

How the values were obtained:
[1] = Solubilization of ascorbic acid with urea as co-solvent (recrystallization); format: physicochemical; conditions: in 1,3 propanediol
From the text: Maximum saturation level experiments
Next, concentrations of ascorbic acid beyond the aforementioned maximum concentration are solubilized, using urea as a co-solvent.

[2] = Comparative studies: solubilization of prior-art ascorbic acid compositions; format: physicochemical; conditions: ascorbic acid together with urea in propylene glycol, butylene glycol and propanediol
Method: This example was reproduced.
All mixtures were heated to 85° C.

[3] = concentrations of 0.2%; cited from earlier work
[4] = Solubility of optional additional components in polyol solvents; format: physicochemical
From the text: Additional ingredients were chosen for their compatibility with (e.g., miscibility in) 1,3 propanediol, 1,2 propanediol, and/or 1,3 butanediol.

[5] = cream containing 10% MAP; cited from earlier work
[6] = use of 4% HQ or 5% Vitamin C; cited from earlier work

Compound: COc1cc(CC(C(C)=O)C(C)=O)ccc1O [Acetyl zingerone]
solubility ([4]; at 0.5-1% in 1,3 propanediol, 1,2 propanediol and 1,3 butanediol): readily soluble

Compound: O=C1O[C@H]([C@@H](O)CO)C([O-])=C1OP(=O)([O-])[O-].O=C1O[C@H]([C@@H](O)CO)C([O-])=C1OP(=O)([O-])[O-].[Mg+2].[Mg+2].[Mg+2] [MAP, magnesium ascorbyl phosphate]
brightening/lightening of the appearance of the skin [5]: effectively brighten/lighten the appearance of the skin

Compound: O=C1O[C@H]([C@@H](O)CO)C(O)=C1O [AA, L-ascorbic acid]
improvement [6]: 62.5%

Compound: Oc1ccc(O)cc1 [HQ, hydroquinone]
improvement [6]: 93%
side-effects [6]: 68.7%

Now from value to compound, other results behind:

minimum amount U required to solubilize 20% AA [1]: ~10%
solubility of U (saturation reached before recrystallization of U) [1]: ~ 27.8%
maximum concentrations soluble before urea itself starts to precipitate [2]: 20%
Compound: NC(N)=O [U, urea]

solubility ([4]; at 0.2% in 1,3 propanediol, 1,2 propanediol and 1,3 butanediol): soluble
Compound: Madecassoside
reduction of erythema (skin redness) [3]: desirable ability to reduce erythema

solubility ([4]; in 1,3-propanediol): shows solubility
Compound: CC1(C)[C@@H](O[C@H]2O[C@H](C(=O)O)[C@@H](O)[C@H](O)[C@H]2O[C@@H]2O[C@H](C(=O)O)[C@@H](O)[C@H](O)[C@H]2O)CC[C@]2(C)[C@H]3C(=O)C=C4[C@@H]5C[C@@](C)(C(=O)O)CC[C@]5(C)CC[C@@]4(C)[C@]3(C)CC[C@@H]12 [glycyrrhizic acid, Glycyrrhizic acid]

concentration of AzA that can be solubilized ([4]; in 1,3 propanediol): up to 10%
effect of hydroxyethyl urea on solubility of AzA ([4]; in 1,3 propanediol): slightly increased
AzA solubilized together with ascorbic acid and urea ([4]; with 10% Ascorbic Acid (AA), 5% Urea in 1,3 propanediol solvent base): 7.5%
Compound: O=C(O)CCCCCCCC(=O)O [AzA, Azelaic acid]
